Reference: the kinase profiling compilation of Christmann-Franck et al. (2016)

Tests used:
Experiment in all cases: KINOMEscan competition binding
Conditions in all cases: compound 10.0 µM
[1] = test system: ABL1 (human), P00519 [E255K]
[2] = test system: EIF2AK4 KD2 (human), Q9P2K8 [S808G]
[3] = target: MAP2K3 (human) (UniProt P46734)
[4] = target: PLK1 (human) (UniProt P53350)
[5] = target: FES (human) (UniProt P07332)
[6] = target: HCK (human) (UniProt P08631)
[7] = target: CIT (human) (UniProt O14578)
CIT (human), sequence (O14578 whole entry, looked up): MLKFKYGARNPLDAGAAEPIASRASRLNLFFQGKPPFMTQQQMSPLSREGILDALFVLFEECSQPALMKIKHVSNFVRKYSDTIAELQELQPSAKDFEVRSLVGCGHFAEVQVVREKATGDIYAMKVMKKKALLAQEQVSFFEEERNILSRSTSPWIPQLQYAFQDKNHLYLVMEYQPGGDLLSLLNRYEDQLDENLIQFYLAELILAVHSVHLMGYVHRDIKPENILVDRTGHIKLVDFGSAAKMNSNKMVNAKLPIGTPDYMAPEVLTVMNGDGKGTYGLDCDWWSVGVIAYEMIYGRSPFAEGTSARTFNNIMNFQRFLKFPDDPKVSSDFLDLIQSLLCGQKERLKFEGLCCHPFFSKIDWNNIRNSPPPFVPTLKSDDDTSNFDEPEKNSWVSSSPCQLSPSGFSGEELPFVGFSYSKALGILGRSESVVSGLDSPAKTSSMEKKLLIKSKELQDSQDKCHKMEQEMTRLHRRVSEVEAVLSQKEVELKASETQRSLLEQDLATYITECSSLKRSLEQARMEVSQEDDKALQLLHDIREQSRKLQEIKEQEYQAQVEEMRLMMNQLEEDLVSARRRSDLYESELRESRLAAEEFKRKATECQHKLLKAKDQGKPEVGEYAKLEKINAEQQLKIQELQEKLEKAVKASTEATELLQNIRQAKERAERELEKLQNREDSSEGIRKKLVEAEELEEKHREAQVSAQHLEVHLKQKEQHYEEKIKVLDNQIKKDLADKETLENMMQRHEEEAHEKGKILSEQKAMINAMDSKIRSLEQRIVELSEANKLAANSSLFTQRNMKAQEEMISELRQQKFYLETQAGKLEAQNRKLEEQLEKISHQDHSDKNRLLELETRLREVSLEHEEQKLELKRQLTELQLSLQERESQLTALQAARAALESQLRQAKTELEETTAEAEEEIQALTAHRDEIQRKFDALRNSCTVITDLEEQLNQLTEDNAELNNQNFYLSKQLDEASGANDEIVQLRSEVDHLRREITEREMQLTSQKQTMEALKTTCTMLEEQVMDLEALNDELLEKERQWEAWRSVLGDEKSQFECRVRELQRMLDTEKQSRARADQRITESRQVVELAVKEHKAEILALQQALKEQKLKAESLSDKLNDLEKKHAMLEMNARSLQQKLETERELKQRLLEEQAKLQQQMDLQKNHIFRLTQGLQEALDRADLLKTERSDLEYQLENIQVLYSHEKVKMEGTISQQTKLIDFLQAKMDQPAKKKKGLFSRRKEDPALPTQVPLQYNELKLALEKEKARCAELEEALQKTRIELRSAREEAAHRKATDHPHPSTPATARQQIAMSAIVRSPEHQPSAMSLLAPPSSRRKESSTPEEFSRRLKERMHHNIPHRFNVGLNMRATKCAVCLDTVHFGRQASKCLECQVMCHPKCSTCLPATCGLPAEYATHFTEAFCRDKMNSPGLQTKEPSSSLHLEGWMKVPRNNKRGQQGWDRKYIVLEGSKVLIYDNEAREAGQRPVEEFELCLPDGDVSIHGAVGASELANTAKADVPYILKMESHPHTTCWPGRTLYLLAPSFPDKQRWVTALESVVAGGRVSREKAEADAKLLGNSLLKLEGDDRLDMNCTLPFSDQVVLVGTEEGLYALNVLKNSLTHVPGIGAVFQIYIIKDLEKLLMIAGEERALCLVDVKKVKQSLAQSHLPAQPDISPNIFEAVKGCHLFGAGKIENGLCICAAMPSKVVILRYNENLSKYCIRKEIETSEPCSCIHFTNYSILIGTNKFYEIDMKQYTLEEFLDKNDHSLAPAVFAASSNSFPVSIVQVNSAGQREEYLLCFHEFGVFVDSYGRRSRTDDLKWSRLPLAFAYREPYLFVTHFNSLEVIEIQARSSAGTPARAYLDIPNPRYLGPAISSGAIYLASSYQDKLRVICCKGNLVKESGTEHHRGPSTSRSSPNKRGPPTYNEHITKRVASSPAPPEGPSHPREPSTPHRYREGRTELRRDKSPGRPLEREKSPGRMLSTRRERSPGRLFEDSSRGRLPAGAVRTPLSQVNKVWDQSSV

[8] = target: WEE2 (human) (UniProt P0C1S8)
[9] = test system: PIK3CA (human), P42336 [E545K]
[10] = target: MAP3K11 (human) (UniProt Q16584)
MAP3K11 (human), sequence (Q16584 whole entry, looked up): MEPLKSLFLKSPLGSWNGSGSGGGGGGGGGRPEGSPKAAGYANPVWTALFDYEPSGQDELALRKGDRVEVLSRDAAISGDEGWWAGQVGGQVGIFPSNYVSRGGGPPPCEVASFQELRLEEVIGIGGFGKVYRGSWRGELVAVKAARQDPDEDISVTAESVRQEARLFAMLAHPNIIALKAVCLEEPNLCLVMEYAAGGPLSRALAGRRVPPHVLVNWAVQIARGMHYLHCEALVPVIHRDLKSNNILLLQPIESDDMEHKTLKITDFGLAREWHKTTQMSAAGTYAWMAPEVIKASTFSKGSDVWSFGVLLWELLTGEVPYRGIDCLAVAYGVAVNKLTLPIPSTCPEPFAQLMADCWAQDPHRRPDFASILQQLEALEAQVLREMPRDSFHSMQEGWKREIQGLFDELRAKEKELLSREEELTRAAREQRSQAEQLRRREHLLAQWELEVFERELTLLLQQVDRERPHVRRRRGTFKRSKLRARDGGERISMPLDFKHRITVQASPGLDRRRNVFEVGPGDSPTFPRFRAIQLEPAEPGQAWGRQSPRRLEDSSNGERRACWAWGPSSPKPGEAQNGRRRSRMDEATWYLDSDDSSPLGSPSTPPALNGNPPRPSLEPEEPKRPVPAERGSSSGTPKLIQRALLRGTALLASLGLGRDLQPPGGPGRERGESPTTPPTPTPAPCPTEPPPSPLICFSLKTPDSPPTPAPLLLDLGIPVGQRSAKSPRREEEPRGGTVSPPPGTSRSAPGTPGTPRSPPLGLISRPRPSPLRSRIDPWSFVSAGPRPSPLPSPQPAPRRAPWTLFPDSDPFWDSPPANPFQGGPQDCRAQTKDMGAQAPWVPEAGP

[11] = target: MERTK (human) (UniProt Q12866)
[12] = target: CHUK (human) (UniProt O15111)
[13] = target: ADCK3 (human) (UniProt Q8NI60)
[14] = target: MAP4K4 (human) (UniProt O95819)
[15] = test system: FLT3 (human), P36888 [K663Q]
[16] = target: RPS6KA5 KD2 (human) (UniProt O75582)
[17] = test system: EGFR (human), P00533 [L858R]
[18] = target: STK33 (human) (UniProt Q9BYT3)
[19] = target: CDKL2 (human) (UniProt Q92772)
[20] = test system: EGFR (human), P00533 [G719C]
[21] = target: FYN (human) (UniProt P06241)
[22] = target: RPS6KA1 KD2 (human) (UniProt Q15418)
RPS6KA1 KD2 (human), sequence (Q15418 whole entry, looked up): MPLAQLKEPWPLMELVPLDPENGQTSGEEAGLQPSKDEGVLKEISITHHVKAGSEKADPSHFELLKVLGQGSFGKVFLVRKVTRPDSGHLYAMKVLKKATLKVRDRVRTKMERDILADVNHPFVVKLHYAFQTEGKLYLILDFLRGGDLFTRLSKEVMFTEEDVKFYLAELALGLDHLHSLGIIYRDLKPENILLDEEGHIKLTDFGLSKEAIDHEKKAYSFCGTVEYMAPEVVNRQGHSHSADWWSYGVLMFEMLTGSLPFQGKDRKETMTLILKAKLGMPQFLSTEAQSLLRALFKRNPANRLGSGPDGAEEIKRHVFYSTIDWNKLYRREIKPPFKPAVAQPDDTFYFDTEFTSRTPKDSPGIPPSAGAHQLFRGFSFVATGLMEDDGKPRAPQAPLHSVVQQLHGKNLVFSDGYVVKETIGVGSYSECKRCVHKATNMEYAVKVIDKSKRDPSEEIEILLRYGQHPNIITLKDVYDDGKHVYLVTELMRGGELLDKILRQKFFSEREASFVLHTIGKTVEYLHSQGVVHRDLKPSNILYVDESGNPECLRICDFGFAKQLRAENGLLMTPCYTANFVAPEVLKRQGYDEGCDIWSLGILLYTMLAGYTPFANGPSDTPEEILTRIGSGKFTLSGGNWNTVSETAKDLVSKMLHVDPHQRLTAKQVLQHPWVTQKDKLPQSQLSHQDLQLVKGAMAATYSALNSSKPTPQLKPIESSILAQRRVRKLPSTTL

[23] = target: EPHA8 (human) (UniProt P29322)
[24] = target: RPS6KA4 KD2 (human) (UniProt O75676)
[25] = target: RIPK1 (human) (UniProt Q13546)
[26] = target: RPS6KA2 KD2 (human) (UniProt Q15349)
[27] = target: ALK (human) (UniProt Q9UM73)
[28] = target: CaMK1 (human) (UniProt Q14012)
[29] = target: MUSK (human) (UniProt O15146)
[30] = target: RIOK1 (human) (UniProt Q9BRS2)
[31] = target: EPHA4 (human) (UniProt P54764)
[32] = target: MST1R (human) (UniProt Q04912)
[33] = test system: EGFR (human), P00533 [P753S; 747-752 del]
[34] = target: MAP3K12 (human) (UniProt Q12852)
MAP3K12 (human), sequence (Q12852 whole entry, looked up): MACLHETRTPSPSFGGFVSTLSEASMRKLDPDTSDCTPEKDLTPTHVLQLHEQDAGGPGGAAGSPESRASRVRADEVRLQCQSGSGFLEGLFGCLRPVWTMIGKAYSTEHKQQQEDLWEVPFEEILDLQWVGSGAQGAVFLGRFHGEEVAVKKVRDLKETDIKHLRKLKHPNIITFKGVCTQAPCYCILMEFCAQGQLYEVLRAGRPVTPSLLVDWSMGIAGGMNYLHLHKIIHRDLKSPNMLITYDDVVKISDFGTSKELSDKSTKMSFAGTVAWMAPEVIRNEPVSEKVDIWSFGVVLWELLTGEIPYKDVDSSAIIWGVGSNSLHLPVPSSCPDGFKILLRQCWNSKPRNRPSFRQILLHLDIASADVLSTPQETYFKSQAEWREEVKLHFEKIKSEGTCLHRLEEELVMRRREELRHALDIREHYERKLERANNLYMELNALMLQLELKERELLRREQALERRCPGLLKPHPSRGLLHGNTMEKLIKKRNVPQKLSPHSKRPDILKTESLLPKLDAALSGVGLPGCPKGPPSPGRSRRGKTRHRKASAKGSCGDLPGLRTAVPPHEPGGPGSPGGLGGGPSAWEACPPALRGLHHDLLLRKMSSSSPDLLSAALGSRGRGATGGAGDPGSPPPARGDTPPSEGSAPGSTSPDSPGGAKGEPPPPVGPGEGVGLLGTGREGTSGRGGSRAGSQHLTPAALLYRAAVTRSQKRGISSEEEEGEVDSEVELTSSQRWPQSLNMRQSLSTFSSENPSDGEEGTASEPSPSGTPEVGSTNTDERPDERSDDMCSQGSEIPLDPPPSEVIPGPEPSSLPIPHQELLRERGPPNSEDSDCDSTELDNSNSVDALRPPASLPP

[35] = target: GSK3B (human) (UniProt P49841)
[36] = target: CDK9 (human) (UniProt P50750)
[37] = target: RPS6KA3 KD1 (human) (UniProt P51812)
[38] = target: TNNI3K (human) (UniProt Q59H18)
[39] = target: PDGFRB (human) (UniProt P09619)
[40] = target: MET (human) (UniProt P08581)
[41] = target: BMX (human) (UniProt P51813)
[42] = target: STK4 (human) (UniProt Q13043)

HCK (human), sequence (P08631 whole entry, looked up): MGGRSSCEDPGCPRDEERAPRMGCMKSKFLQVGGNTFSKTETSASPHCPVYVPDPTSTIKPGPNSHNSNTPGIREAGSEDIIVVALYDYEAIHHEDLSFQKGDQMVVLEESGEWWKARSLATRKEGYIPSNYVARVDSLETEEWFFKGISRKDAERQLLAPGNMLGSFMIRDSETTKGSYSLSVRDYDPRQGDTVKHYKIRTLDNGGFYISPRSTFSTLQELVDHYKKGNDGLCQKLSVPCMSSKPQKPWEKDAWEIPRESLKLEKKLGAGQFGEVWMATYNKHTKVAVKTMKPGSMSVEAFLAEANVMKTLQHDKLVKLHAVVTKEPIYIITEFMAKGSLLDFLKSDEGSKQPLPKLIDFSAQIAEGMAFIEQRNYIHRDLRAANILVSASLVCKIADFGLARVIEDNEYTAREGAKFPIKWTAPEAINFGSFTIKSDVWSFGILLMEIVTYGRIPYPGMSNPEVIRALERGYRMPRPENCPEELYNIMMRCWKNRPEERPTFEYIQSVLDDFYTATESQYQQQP

CCN1CCN(Cc2ccc(NC(=O)c3ccc(C)c(/C=C/c4cnc(Nc5cc(N6CCNCC6)nc(C)n5)cn4)c3)cc2C(F)(F)F)CC1 was tested, and the kinase still bound, per cent of control [1] was 0.3%, the kinase still bound, per cent of control [2] was 0.8% and the kinase still bound, per cent of control [3] was 100%. The kinase still bound, per cent of control [4] was 100%, the kinase still bound, per cent of control [5] was 9.4% and the kinase still bound, per cent of control [6] was 0.4%. It also gave a kinase still bound, per cent of control [7] of 0.2%, a kinase still bound, per cent of control [8] of 83% and a kinase still bound, per cent of control [9] of 100%. For the same molecule, the kinase still bound, per cent of control [10] was 10%, the kinase still bound, per cent of control [11] was 31% and the kinase still bound, per cent of control [12] was 0%. It also gave a kinase still bound, per cent of control [13] of 100%, a kinase still bound, per cent of control [14] of 0.1% and a kinase still bound, per cent of control [15] of 0.15%. For the same molecule, the kinase still bound, per cent of control [16] was 73%, the kinase still bound, per cent of control [17] was 3.4% and the kinase still bound, per cent of control [18] was 90%. The kinase still bound, per cent of control [19] was 0.15%, the kinase still bound, per cent of control [20] was 1.8% and the kinase still bound, per cent of control [21] was 4.6%. It also gave a kinase still bound, per cent of control [22] of 13%, a kinase still bound, per cent of control [23] of 0.35% and a kinase still bound, per cent of control [24] of 43%. For the same molecule, the kinase still bound, per cent of control [25] was 2.7%, the kinase still bound, per cent of control [26] was 43% and the kinase still bound, per cent of control [27] was 100%. The kinase still bound, per cent of control [28] was 90%, the kinase still bound, per cent of control [29] was 5.2% and the kinase still bound, per cent of control [30] was 100%. It also gave a kinase still bound, per cent of control [31] of 16%, a kinase still bound, per cent of control [32] of 85% and a kinase still bound, per cent of control [33] of 0.2%. It also gave a kinase still bound, per cent of control [34] of 18%, a kinase still bound, per cent of control [35] of 100% and a kinase still bound, per cent of control [36] of 99%. It also gave a kinase still bound, per cent of control [37] of 43%, a kinase still bound, per cent of control [38] of 12% and a kinase still bound, per cent of control [39] of 0%. It also gave a kinase still bound, per cent of control [40] of 78%, a kinase still bound, per cent of control [41] of 12% and a kinase still bound, per cent of control [42] of 22%.

COc1cc(N2CCC(N3CCN(C)CC3)CC2)ccc1Nc1ncc(Cl)c(Nc2ccccc2S(=O)(=O)C(C)C)n1 showed a kinase still bound, per cent of control [1] of 19%, a kinase still bound, per cent of control [2] of 4.5% and a kinase still bound, per cent of control [3] of 0.8%. The kinase still bound, per cent of control [4] was 0.1%, the kinase still bound, per cent of control [6] was 0.35% and the kinase still bound, per cent of control [7] was 40%. For the same molecule, the kinase still bound, per cent of control [8] was 40%, the kinase still bound, per cent of control [9] was 40% and the kinase still bound, per cent of control [10] was 20%. It also gave a kinase still bound, per cent of control [11] of 0%, a kinase still bound, per cent of control [12] of 40% and a kinase still bound, per cent of control [13] of 9.2%. It also gave a kinase still bound, per cent of control [14] of 5.4%, a kinase still bound, per cent of control [16] of 40% and a kinase still bound, per cent of control [17] of 0.1%. The kinase still bound, per cent of control [18] was 0.1%, the kinase still bound, per cent of control [19] was 40% and the kinase still bound, per cent of control [21] was 5.6%. It also gave a kinase still bound, per cent of control [22] of 10%, a kinase still bound, per cent of control [23] of 40% and a kinase still bound, per cent of control [24] of 40%. For the same molecule, the kinase still bound, per cent of control [25] was 18%, the kinase still bound, per cent of control [26] was 6.2% and the kinase still bound, per cent of control [28] was 1.4%. The kinase still bound, per cent of control [29] was 0.35%, the kinase still bound, per cent of control [30] was 2.6% and the kinase still bound, per cent of control [31] was 30%. For the same molecule, the kinase still bound, per cent of control [32] was 3%, the kinase still bound, per cent of control [33] was 0.95% and the kinase still bound, per cent of control [34] was 0%. For the same molecule, the kinase still bound, per cent of control [35] was 40%, the kinase still bound, per cent of control [36] was 40% and the kinase still bound, per cent of control [37] was 0.55%. For the same molecule, the kinase still bound, per cent of control [38] was 15%, the kinase still bound, per cent of control [39] was 0.25% and the kinase still bound, per cent of control [40] was 0%. For the same molecule, the kinase still bound, per cent of control [42] was 4.1%.
